{"source": "patent US20110293676A1", "about": "“Oral Cephalotaxine Dosage Forms” (ChemGenex Pharmaceuticals, Inc., priority 2007, published 2011)", "key": {"[1]": {"assay": "Pharmacokinetic study of homoharringtonine in mice, oral vs subcutaneous, plasma HHT content", "format": "in vivo, male CD-1 mice", "parameters": "Tmax / t-½: unit not given here", "conditions": "for Concentration of HHT in mouse sodium heparin plasma: single dose; for BA po/sc % / Cmax / Tmax / AUC / t-½: mouse; for AUC / t-½: WINNONLIN NCA model", "description": "To evaluate the potential for the development of an oral formulation of homoharringtonine, a pharmacokinetic study was performed in mice. Homoharringtonine was given, at 2 doses, by either oral or subcutaneous routes to male CD-1 mice. After a single administration, blood was collected from the tail vein and analyzed for homoharringtonine content. The animal dosing was performed by Murigenics (Berkeley, Calif.) and the analysis of sera was performed by PHARMout (Sunnyvale, Calif.). […] This bioavailability is considered very good.\nHomoharringtonine was manufactured by Stragen for ChemGenex Pharmaceuticals. 5 mg of lyophilized homoharringtonine was provided in a glass vial and was stable at room temperature. The vehicle was 0.9% sodium chloride supplied with the test agent in a separate vial. 27 male CD-1 mice, 8-10 weeks old (Charles River Laboratories) were used for this study. 24 mice were used for dosing, and 3 mice were used as naïve controls.\nOn the day of the study, 5 ml of saline were added to the 5 mg vial to make a stock of 1 mg/ml HHT. The amount administered for each mouse was based on weight, using a dose volume of 4 ml/kg. The dosing administration was performed according to Table 1.\nTest subjects were dosed once. The enzyme blocker was provided in two separate tubes (A & B) Immediately prior to blood collection, 20 μL each of A and B were aliquoted into a small tube (to yield 40 μL of enzyme inhibitor).\nBlood from 3 naïve mice was collected for a 0 timepoint. Approximately 50 μL of whole blood per animal (n=3 mice per time point) was collected into heparinized capillary tubes. Heparanized blood was transferred into tubes containing 40 μL of enzyme inhibitor. Samples were clearly marked by PK timepoint and group. Blood was stored on ice until centrifugation. There were 6 mice treated at each dose, but blood was pooled from 3 mice per time point so that each mouse had blood collected at every other timepoint. There were the following timepoints: 0, 15 min, 30 min, 2 hr, 4 hr and 8 hr after the administration of homoharringtonine. There were three samples collected for the T=0 from naïve mice. There were 5 samples collected for each dose, corresponding to the timepoints, 15 min, 30 min, 2 hr, 4 hr and 8 hr after the administration of homoharrigntonine. There were 2 doses for each route, and 2 routes of administration, so there were a total of 20 samples collected from treated mice. Plasma tubes were spun to prepare plasma, frozen to −80° C. and shipped on dry ice to PHARMout for bioanalytical work up.\nThe Cmax of the oral doses was 4 and 30 ng/mL for the 410 and 1600 μg/kg oral doses, respectively."}, "[2]": {"assay": "Observation for mortality, morbidity and adverse events in the mouse pharmacokinetic study", "format": "in vivo, male CD-1 mice", "conditions": "single dose 0.41 or 1.6 mg/kg p.o. or s.c., observed until 7 days after last blood collection", "description": "Animals were observed twice daily (in the morning and in the evening) for mortality and morbidity beginning at the time of arrival from the vendor until the scheduled sacrifice 7 days after the last blood collection. Prior to dosing, each animal was removed from its cage and observed for signs of poor health and abnormal behavior. All animals were weighed prior to dosing.\nNo unscheduled sacrifices or deaths were recorded. Animals were sacrificed via CO2 7 days after the completion of blood draws."}}}
{"smiles": "COC(=O)C[C@](O)(CCCC(C)(C)O)C(=O)O[C@@H]1C(OC)=C[C@]23CCCN2CCc2cc4c(cc2[C@H]13)OCO4", "note": "[HHT, cephalotaxine, 4-methyl-2-hydroxy-2-(4-hydroxy-4-methylpentyl) butanediocate ester]", "values": [{"measurement": "Concentration of HHT in mouse sodium heparin plasma", "setting": "[1]; Group 1: 0.41 mg/kg p.o., 15 min", "value": 3.54, "unit": "ng/mL"}, {"measurement": "Concentration of HHT in mouse sodium heparin plasma", "setting": "[1]; Group 1: 0.41 mg/kg p.o., 30 min", "value": 3.59, "unit": "ng/mL"}, {"measurement": "Concentration of HHT in mouse sodium heparin plasma", "setting": "[1]; Group 1: 0.41 mg/kg p.o., 60 min", "value": 3.85, "unit": "ng/mL"}, {"measurement": "Concentration of HHT in mouse sodium heparin plasma", "setting": "[1]; Group 1: 0.41 mg/kg p.o., 120 min", "value": 4.29, "unit": "ng/mL"}, {"measurement": "Concentration of HHT in mouse sodium heparin plasma", "setting": "[1]; Group 1: 0.41 mg/kg p.o., 240 min", "value": 1.81, "unit": "ng/mL"}, {"measurement": "Concentration of HHT in mouse sodium heparin plasma", "setting": "[1]; Group 1: 0.41 mg/kg p.o., 480 min", "value": 1.65, "unit": "ng/mL"}, {"measurement": "Concentration of HHT in mouse sodium heparin plasma", "setting": "[1]; Group 2: 0.41 mg/kg s.c., 15 min", "value": 20.4, "unit": "ng/mL"}, {"measurement": "Concentration of HHT in mouse sodium heparin plasma", "setting": "[1]; Group 2: 0.41 mg/kg s.c., 30 min", "value": 11.2, "unit": "ng/mL"}, {"measurement": "Concentration of HHT in mouse sodium heparin plasma", "setting": "[1]; Group 2: 0.41 mg/kg s.c., 60 min", "value": 6.20, "unit": "ng/mL"}, {"measurement": "Concentration of HHT in mouse sodium heparin plasma", "setting": "[1]; Group 2: 0.41 mg/kg s.c., 120 min", "value": 3.59, "unit": "ng/mL"}, {"measurement": "Concentration of HHT in mouse sodium heparin plasma", "setting": "[1]; Group 2: 0.41 mg/kg s.c., 240 min", "value": 2.44, "unit": "ng/mL"}, {"measurement": "Concentration of HHT in mouse sodium heparin plasma", "setting": "[1]; Group 2: 0.41 mg/kg s.c., 480 min", "value": "BQL (Below the quantification limit (1.00 ng/mL))"}, {"measurement": "Concentration of HHT in mouse sodium heparin plasma", "setting": "[1]; Group 3: 1.6 mg/kg p.o., 15 min", "value": 6.58, "unit": "ng/mL"}, {"measurement": "Concentration of HHT in mouse sodium heparin plasma", "setting": "[1]; Group 3: 1.6 mg/kg p.o., 30 min", "value": 8.87, "unit": "ng/mL"}, {"measurement": "Concentration of HHT in mouse sodium heparin plasma", "setting": "[1]; Group 3: 1.6 mg/kg p.o., 60 min", "value": 29.9, "unit": "ng/mL"}, {"measurement": "Concentration of HHT in mouse sodium heparin plasma", "setting": "[1]; Group 3: 1.6 mg/kg p.o., 120 min", "value": 9.18, "unit": "ng/mL"}, {"measurement": "Concentration of HHT in mouse sodium heparin plasma", "setting": "[1]; Group 3: 1.6 mg/kg p.o., 240 min", "value": 5.52, "unit": "ng/mL"}, {"measurement": "Concentration of HHT in mouse sodium heparin plasma", "setting": "[1]; Group 3: 1.6 mg/kg p.o., 480 min", "value": 4.19, "unit": "ng/mL"}, {"measurement": "Concentration of HHT in mouse sodium heparin plasma", "setting": "[1]; Group 4: 1.6 mg/kg s.c., 15 min", "value": 54.4, "unit": "ng/mL"}, {"measurement": "Concentration of HHT in mouse sodium heparin plasma", "setting": "[1]; Group 4: 1.6 mg/kg s.c., 30 min", "value": 15.4, "unit": "ng/mL"}, {"measurement": "Concentration of HHT in mouse sodium heparin plasma", "setting": "[1]; Group 4: 1.6 mg/kg s.c., 60 min", "value": 35.3, "unit": "ng/mL"}, {"measurement": "Concentration of HHT in mouse sodium heparin plasma", "setting": "[1]; Group 4: 1.6 mg/kg s.c., 120 min", "value": 6.38, "unit": "ng/mL"}, {"measurement": "Concentration of HHT in mouse sodium heparin plasma", "setting": "[1]; Group 4: 1.6 mg/kg s.c., 240 min", "value": 7.72, "unit": "ng/mL"}, {"measurement": "Concentration of HHT in mouse sodium heparin plasma", "setting": "[1]; Group 4: 1.6 mg/kg s.c., 480 min", "value": 3.10, "unit": "ng/mL"}, {"measurement": "BA po/sc %", "setting": "[1]; 410 ug/kg, oral compared with subcutaneous dosing", "value": 76, "unit": "%"}, {"measurement": "BA po/sc %", "setting": "[1]; 1600 ug/kg, oral based on the subcutaneous dose", "value": 77, "unit": "%"}, {"measurement": "Cmax", "setting": "[1]; po, 410 ug/kg (1.2 mg/m2)", "value": 4, "unit": "ng/mL"}, {"measurement": "Tmax", "setting": "[1]; po, 410 ug/kg (1.2 mg/m2)", "value": 120}, {"measurement": "AUC", "setting": "[1]; po, 410 ug/kg (1.2 mg/m2)", "value": 1217, "unit": "ng·min/mL"}, {"measurement": "t-½", "setting": "[1]; po, 410 ug/kg (1.2 mg/m2)", "value": 297}, {"measurement": "Cmax", "setting": "[1]; po, 1600 ug/kg (4.8 mg/m2)", "value": 30, "unit": "ng/mL"}, {"measurement": "Tmax", "setting": "[1]; po, 1600 ug/kg (4.8 mg/m2)", "value": 60}, {"measurement": "AUC", "setting": "[1]; po, 1600 ug/kg (4.8 mg/m2)", "value": 3966, "unit": "ng·min/mL"}, {"measurement": "t-½", "setting": "[1]; po, 1600 ug/kg (4.8 mg/m2)", "value": 341}, {"measurement": "Cmax", "setting": "[1]; sc, 410 ug/kg (1.2 mg/m2)", "value": 20, "unit": "ng/mL"}, {"measurement": "Tmax", "setting": "[1]; sc, 410 ug/kg (1.2 mg/m2)", "value": 15}, {"measurement": "AUC", "setting": "[1]; sc, 410 ug/kg (1.2 mg/m2)", "value": 1599, "unit": "ng·min/mL"}, {"measurement": "t-½", "setting": "[1]; sc, 410 ug/kg (1.2 mg/m2)", "value": 215}, {"measurement": "Cmax", "setting": "[1]; sc, 1600 ug/kg (4.8 mg/m2)", "value": 54, "unit": "ng/mL"}, {"measurement": "Tmax", "setting": "[1]; sc, 1600 ug/kg (4.8 mg/m2)", "value": 15}, {"measurement": "AUC", "setting": "[1]; sc, 1600 ug/kg (4.8 mg/m2)", "value": 5087, "unit": "ng·min/mL"}, {"measurement": "t-½", "setting": "[1]; sc, 1600 ug/kg (4.8 mg/m2)", "value": 306}, {"measurement": "mortality and morbidity", "setting": "[2]", "value": "No mortalities or signs of morbidity were observed"}]}
